Values after ≈ are worked out from the molar mass of the structure shown. Where a name gives a salt, the structure may show the parent alone.

These results are taken from patent publication US4548819A, “Derivatives of 9-(2-hydroxyethoxymethyl) guanine” (priority 1983, dated 1985).

One test concerns HSV-1 (F). As to the kind of experiment: Antiviral activity in vitro: retardation of virus-induced cytopathogenicity in primary rabbit kidney cells, HSV-1 (F). The class given is cell-based, herpes simplex virus, Type 1. Conditions: Human alphaherpesvirus 1, average of 2 or 3 determinations, read-out: Minimum Inhibitory Concentration (concentration necessary to reduce by 50% the cytopathogenicity induced by the virus). The text has this:
(§1) In a series of biological tests an investigation was made of the activity of the compounds of Examples 1-3 in comparison with acyclovir against various viruses in cell cultures of primary rabbit kidney cells.
(§2) The viruses used were: herpes simplex type 1 (strains KOS, Mc Intyre and F) and herpes simplex type 2 (strains Lyons, G and 196).
(§3) The origin of the six herpes simplex strains and the method for the measurement of the retardation of the cytopathogenicity induced by the virus are described by E. de Clercq et al. in J. Infect Dis., 141, 563 (1980).
(§4) The results of the tests are reproduced in the following table, where they are expressed in the minimum inhibitory concentration, that is to say the concentration (in μg/ml) which is necessary to reduce by 50% the cytopathogenicity induced by the virus in the cell culture. In all cases average values of 2 or 3 separate determinations are given.
For orientation: Damage to the host cells serves as the signal in cytopathic effect assays.

A further test deals with HSV-1 (KOS). Briefly: Antiviral activity in vitro: retardation of virus-induced cytopathogenicity in primary rabbit kidney cells, HSV-1 (KOS). The class given is cell-based, herpes simplex virus, Type 1. Conditions: Human alphaherpesvirus 1, average of 2 or 3 determinations, read-out: Minimum Inhibitory Concentration (concentration necessary to reduce by 50% the cytopathogenicity induced by the virus).
Description: as §1, §2, §3, §4

In another test the test system is HSV-2 (196). Briefly: Antiviral activity in vitro: retardation of virus-induced cytopathogenicity in primary rabbit kidney cells, HSV-2 (196). The test is classed as cell-based, herpes simplex virus, Type 2. Conditions: Human alphaherpesvirus 2, average of 2 or 3 determinations, read-out: Minimum Inhibitory Concentration (concentration necessary to reduce by 50% the cytopathogenicity induced by the virus).
Description: as §1, §2, §3, §4

The next test deals with HSV-2 (Lyons). Briefly: Antiviral activity in vitro: retardation of virus-induced cytopathogenicity in primary rabbit kidney cells, HSV-2 (Lyons). The test is classed as cell-based, herpes simplex virus, Type 2. Conditions: Human alphaherpesvirus 2, average of 2 or 3 determinations, read-out: Minimum Inhibitory Concentration (concentration necessary to reduce by 50% the cytopathogenicity induced by the virus).
Description: as §1, §2, §3, §4

Another test deals with HSV-1 (McIntyre). As to the kind of experiment: Antiviral activity in vitro: retardation of virus-induced cytopathogenicity in primary rabbit kidney cells, HSV-1 (McIntyre). The test is classed as cell-based, herpes simplex virus, Type 1. Conditions: Human alphaherpesvirus 1, average of 2 or 3 determinations, read-out: Minimum Inhibitory Concentration (concentration necessary to reduce by 50% the cytopathogenicity induced by the virus).
Description: as §1, §2, §3, §4

The next test concerns HSV-2 (G). As to the kind of experiment: Antiviral activity in vitro: retardation of virus-induced cytopathogenicity in primary rabbit kidney cells, HSV-2 (G). Conditions: Human alphaherpesvirus 2, average of 2 or 3 determinations, read-out: Minimum Inhibitory Concentration (concentration necessary to reduce by 50% the cytopathogenicity induced by the virus). The class given is cell-based, herpes simplex virus, Type 2.
Description: as §1, §2, §3, §4

The test system of another test is herpes viruses. Conditions: H. J. Schaeffer et al, Nature, 272, 583-585 (1978); cited from earlier work.
The next test deals with HSV-1 (strain McIntyre). Briefly: Antiviral activity in vivo: HSV-1 stromal keratitis in rabbits, eye drops. The method, then:
The in vivo antiviral activity of the compound of Example 1 was compared with the known antiviral bromovinyldeoxyuridine.
Eye drops containing 0.5% (w/v) of bromovinyldeoxyuridine or 1% w/v of compound of Example 1 were prepared in an isotonic borate buffer containing 1.52 g boric acid, 0.008 g borax and 0.01 g benzalkoniumchloride in 100 ml distilled water. The pH of the solution was 5.7. The vehicle alone without any antiviral ingredients was used as placebo. The eye drops were coded.
A cross-breed of California albino and Dendermonde white rabbits, weighing between 1.5 and 2 kg, were used.
Thirty rabbits were used to produce stromal keratitis according to the technique of McNeill and Kaufman (Arch. Ophthalmol. 97: 727-729, 1979). Rabbits were anesthetized by a subcutaneous injection of fentanyl citrate at 1 ml/kg. A 0.2 ml virus suspension, containing 10^4.5 plaque-forming units of HSV-1 (strain McIntyre) per ml, was injected into the central corneal stroma of both eyes.
The rabbits were numbered serially and allocated at random to three groups of […] rabbits each. Treatment consisted of administration of eye drops containing the compound of Example 1, bromovinyldeoxyuridine, or placebo eye drops. Treatment was started one day after virus inoculation. One drop of the eye drop formulation was instiled into the eye at hourly intervals, nine times as day. Therapy was continued for 5 consecutive days. Both eyes of each rabbit received the same modification.
The severity of keratitis was evaluated daily by the same person using a slitlamp. White illumination was used to examine the corneal stroma and anterior chamber structures. One percent fluorescein sodium eye drops and a cobalt blue filter were employed to judge epithelial keratitis and corneal ulceration.

Setting [1] is: eye drops, Example 1 at 1% w/v or bromovinyldeoxyuridine at 0.5% w/v.
The mark [2] stands for this setting: iritis accompanying stromal HSV-1 keratitis, eye drops.

For the compound `NCCC(=O)OCCOCn1cnc2c(=O)[nH]c(N)nc21` [Example 3, 9-(2-0-β-alanyloxyethoxymethyl)guanine hydrochloride], the IC50 with HSV-1 (F) stood at 0.5 µg/mL; with HSV-1 (KOS), 0.2 µg/mL; with HSV-2 (196), 0.1 µg/mL; in the test on HSV-2 (Lyons), 0.1 µg/mL; in the test with HSV-1 (McIntyre), 0.4 µg/mL; in the test with HSV-2 (G) it was 0.15 µg/mL.

As for `CC(N)C(=O)OCCOCn1cnc2c(=O)[nH]c(N)nc21` (stereo not drawn) [Example 2, 9-(2-0-α-alanyloxyethoxymethyl)guanine hydrochloride], the IC50 in the test on HSV-1 (F) came to 0.4 µg/mL; with HSV-1 (KOS) it was 0.4 µg/mL; in the test with HSV-2 (196), 0.1 µg/mL; in the test on HSV-2 (Lyons), 0.07 µg/mL; with HSV-1 (McIntyre), 0.4 µg/mL; in the test with HSV-2 (G), 0.2 µg/mL.

For `Nc1nc2c(ncn2COCCO)c(=O)[nH]1` [Acyclovir, 9-(2-Hydroxyethoxymethyl)guanine, reference compound], in the test on herpes viruses, the antiviral activity entry is “potential antiviral activity, particularly against herpes viruses”. Also, the IC50 is 0.09 µg/mL (≈ 0.4 µM) in the test with HSV-1 (F); 0.08 µg/mL (≈ 0.355 µM) in the test on HSV-1 (KOS); 0.06 µg/mL (≈ 0.266 µM) in the test with HSV-2 (196); 0.04 µg/mL (≈ 0.178 µM) in the test with HSV-2 (Lyons); 0.1 µg/mL (≈ 0.444 µM) in the test on HSV-1 (McIntyre); 0.06 µg/mL (≈ 0.266 µM) in the test with HSV-2 (G).

`Cl.NCC(=O)OCCOCn1cnc2c(=O)[nH]c(N)nc21` [Example 1, 9-(2-glycyloxyethoxymethyl)guanine hydrochloride]: the “difference in keratitis score versus placebo” value in the test on HSV-1 (strain McIntyre) (setting [1]) is “statistically significant throughout the whole observation period”. Further, in the test on HSV-1 (strain McIntyre) (setting [1]), the “progression or healing of stromal disease” value is “prevented the progression of stromal disease”. In addition, the “suppression of stromal keratitis” value in the test with HSV-1 (strain McIntyre) (eye drops, Example 1 at 1% w/v or bromovinyldeoxyuridine at 0.5% w/v, hourly nine times a day, 5 days) is on record as “effective in suppressing stromal keratitis”. Moreover, the “difference in iritis scores versus placebo” value in the test on HSV-1 (strain McIntyre) (setting [2]) is reported as “significant from day 2 till day 8”. Further, the “reduction in the iritis scores” value in the test on HSV-1 (strain McIntyre) (setting [2]) is “significant reduction in the iritis scores”. In the test with HSV-1 (strain McIntyre) (once treatment was initiated, 1% w/v eye drops), the mean keratitis scores entry was “remained nearly constant”. In addition, the IC50 with HSV-1 (F) amounted to 0.1 µg/mL; in the test on HSV-1 (KOS) it was 0.1 µg/mL; in the test on HSV-2 (196), 0.07 µg/mL; with HSV-2 (Lyons), 0.04 µg/mL; in the test with HSV-1 (McIntyre), 0.1 µg/mL; with HSV-2 (G), 0.08 µg/mL.
